Assay: xn = mol fraction of the nth substance listed
Settings: 101 kPa, Liquid; for viscosity: Falling or rolling sphere viscometry; for mass density: Vibrating tube method

CCCCCO [pentan-1-ol] + CCO
Settings	mass density, 293.15 K [kg/m3]	mass density, 298.15 K [kg/m3]	mass density, 303.15 K [kg/m3]	mass density, 308.15 K [kg/m3]	viscosity, 293.15 K [mPa·s]	viscosity, 298.15 K [mPa·s]	viscosity, 303.15 K [mPa·s]	viscosity, 308.15 K [mPa·s]
x2 = 0	814.16	810.52	806.84	803.14	3.939	3.412	2.971	2.599
x2 = 0.101	812.81	809.14	805.44	801.71	3.557	3.098	2.713	2.385
x2 = 0.2	811.19	807.5	803.76	800	3.218	2.818	2.48	2.192
x2 = 0.3	809.41	805.67	801.9	798.1	2.884	2.541	2.249	1.997
x2 = 0.401	807.59	803.79	799.97	796.12	2.584	2.288	2.034	1.814
x2 = 0.5	805.44	801.6	797.73	793.83	2.272	2.021	1.805	1.617
x2 = 0.6	803.06	799.16	795.24	791.27	2.025	1.81	1.624	1.461
x2 = 0.7	800.17	796.21	792.21	788.18	1.784	1.603	1.444	1.304
x2 = 0.801	797.32	793.25	789.17	785.06	1.551	1.399	1.265	1.147
x2 = 0.901	793.6	789.45	785.28	781.06	1.349	1.222	1.109	1.01

From the NIST ThermoML archive (doi:10.1021/je300632p)
